Assay results published in patent publication US9586952B2, “Polycyclic estrogen receptor modulators and uses thereof” (SERAGON PHARMACEUTICALS, INC., priority 2013, dated 2017).

Columns and labels:
[1] = system: MCF-7 cells; assay: MCF7 Viability Assay (Breast Cancer Cell Viability Assay); format: cell-based; conditions: 5 days' compound exposure, CellTiter-Glo; for IC50: Homo sapiens, MCF7, 120 h
Protocol: MCF-7 cells were adjusted to a concentration of 20,000 cells per mL in RPMI containing 10% FBS and 20 mM HEPES. 16 microliters of the cell suspension (320 cells) was added to each well of a 384 well plate, and the cells were incubated overnight to allow the cells to adhere. The following day an eleven point, serial semilog dilution of each compound was added to the cells in 16 μL at a final concentration ranging from 0.3-0.000003 μM. After 5 days' compound exposure, 16 μL of CellTiter-GLo (Promega, Madison Wis.) was added to the cells, and the relative luminescence units (RLUs) of each well were determined. CellTiter-Glo added to 32 μL of medium without cells was used to obtain a background value. The Percent viability of each sample was determined as follows: (RLU sample-RLU background/RLU untreated cells-RLU background)×100=% viability.

[2] = molecular target: T1, ER-α (Homo sapiens, UniProt P03372); assay: Breast Cancer Cell ER-α In Cell Western Assay (SP1); format: cell-based; conditions: MCF-7 cells, 4 or 24 hr post compound addition, SP1 antibody; for Emax: MCF7, read-out: ER-α In Cell Western Assay (SP1) Max Response; for DC50: read-out: ER-α In Cell Western Assay (SP1) IC50
T1 construct: endogenous in cells; host or cells: MCF-7
T1 sequence (P03372 1-595): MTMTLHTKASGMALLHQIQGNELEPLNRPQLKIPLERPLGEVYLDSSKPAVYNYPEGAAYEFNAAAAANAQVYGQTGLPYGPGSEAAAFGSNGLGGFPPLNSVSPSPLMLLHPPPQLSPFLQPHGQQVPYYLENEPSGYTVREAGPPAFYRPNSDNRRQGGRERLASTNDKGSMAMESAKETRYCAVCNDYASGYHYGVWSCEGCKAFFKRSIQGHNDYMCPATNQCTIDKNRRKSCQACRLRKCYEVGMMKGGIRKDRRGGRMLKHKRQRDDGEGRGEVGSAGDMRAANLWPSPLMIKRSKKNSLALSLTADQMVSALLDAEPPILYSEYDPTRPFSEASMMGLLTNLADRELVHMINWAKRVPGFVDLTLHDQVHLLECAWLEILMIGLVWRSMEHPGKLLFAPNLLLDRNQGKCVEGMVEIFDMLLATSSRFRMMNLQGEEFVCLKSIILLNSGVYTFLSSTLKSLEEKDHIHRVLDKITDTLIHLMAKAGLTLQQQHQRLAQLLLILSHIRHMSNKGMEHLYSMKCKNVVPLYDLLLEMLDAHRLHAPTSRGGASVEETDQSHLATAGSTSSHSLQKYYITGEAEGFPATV
Protocol: MCF-7 cells were adjusted to a concentration of 200,000 cells per mL in RPMI containing 10% charcoal-stripped FBS and 20 mM HEPES. 16 microliters of the cell suspension (3200 cells) was added to each well of a poly-D-lysine 384 well plate, and the cells were incubated overnight to allow the cells to adhere. The following day an eleven point, serial semilog dilution of each compound was added to the cells in 16 μL at a final concentration ranging from 0.3-0.000003 μM. At 4 or 24 hr post compound addition, the cells were fixed (10% formalin in PBS) for 20 minutes. Cells were permeablized in PBS 0.1% Triton and blocked with LICOR blocking buffer (50 μl/well, 90′). The wells were then incubated overnight at 4° C. with SP1 rabbit monoclonal Ab (Thermo Scientific) diluted 1:1000 in LICOR blocking buffer/0.1% Tween-20. Wells which were treated with blocking buffer with Tween but no antibody were used as a background control. Wells were washed with 0.1% Tween-20/PBS and then incubated in goat anti-rabbit IRDye™ 800 CW (LICOR Inc.; 1:10000) and DRAQ5 DNA dye (1:2000 for 2 mM stock) diluted in LICOR blocking buffer containing 0.1% Tween-20 and 0.01% SDS for 60 minutes. Cells were washed (50 μl/well, 5′ each) in 0.1% Tween-20/PBS. Plates were scanned on a LICOR Odyssey infrared imaging system. Integrated intensities in the 800 nm channel and 700 nm channel were measured to determine levels of ER and DNA respectively. Percent ER levels were determined as follows: (Integrated intensity 800 nm sample/integrated intensity 700 nm sample)/(Integrated intensity 800 nm untreated cells/integrated intensity 700 nm untreated cells)×100=% ER levels.

Row | IC50 [1] | Emax [2] | DC50 [2] | Structure (SMILES) | MCF7 Viability Assay Max Response [1]
1 | ≤ 0.1 µM | ≥ 40% | ≤ 0.1 µM | COc1ccc(/C(=C(\c2ccc(/C=C/C(=O)O)cc2)c2ccc(N3CCOCC3)cc2)C2CCC2)c(Cl)c1 [Example 4, (E)-3-(4-((E)-2-(2-Chloro-4-methoxyphenyl)-2-cyclobutyl-1-(4-morpholinophenyl)vinyl)phenyl)acrylic acid] | ++ (++ = a single % value ≧ 40%)
2 | ≤ 0.1 µM | ≥ 40% | ≤ 0.1 µM | Cc1cscc1/C(=C(\c1ccc(/C=C/C(=O)O)cc1)c1ccc(-c2cnn(CCO)c2)cc1)C1CCC1 [Example 68, (E)-3-(4-((E)-2-Cyclobutyl-1-(4-(1-(2-hydroxyethyl)-1H-pyrazol-4-yl)phenyl)-2-(4-methylthiophen-3-yl)vinyl)phenyl)acrylic acid] | ++ (++ = a single % value ≧ 40%)
3 | ≤ 0.1 µM | ≥ 40% | ≤ 0.1 µM | CC/C(=C(/c1ccc(/C=C/C(=O)O)cc1)c1ccc(-c2cncs2)c(F)c1)c1ccccc1 [Example 21, (E)-3-(4-((E)-1-(3-Fluoro-4-(thiazol-5-yl)phenyl)-2-phenylbut-1-en-1-yl)phenyl)acrylic acid] | ++ (++ = a single % value ≧ 40%)
4 | ≤ 0.1 µM | ≥ 40% | ≤ 0.1 µM | CC/C(=C(/c1ccc(/C=C/C(=O)O)cc1)c1ccc(-c2cncs2)cc1)c1ccc2occc2c1 [Example 31, (E)-3-(4-((E)-2-(Benzofuran-5-yl)-1-(4-(thiazol-5-yl)phenyl)but-1-en-1-yl)phenyl)acrylic acid] | ++ (++ = a single % value ≧ 40%)
5 | ≤ 0.1 µM | ≥ 40% | ≤ 0.1 µM | CC/C(=C(/c1ccc(/C=C/C(=O)O)cc1)c1ccc(N2CCOCC2)cc1)c1ccccc1 [Example 16, (E)-3-(4-((E)-1-(4-Morpholinophenyl)-2-phenylbut-1-en-1-yl)phenyl)acrylic acid] | ++ (++ = a single % value ≧ 40%)
6 | ≤ 0.1 µM | ≥ 40% | ≤ 0.1 µM | CC/C(=C(/c1ccc(/C=C/C(=O)O)cc1)c1ccc(-c2cncs2)cc1)c1ccccc1Cl [Example 29, (E)-3-(4-((E)-2-(2-Chlorophenyl)-1-(4-(thiazol-5-yl)phenyl)but-1-en-1-yl)phenyl)acrylic acid] | ++ (++ = a single % value ≧ 40%)
7 | ≤ 0.1 µM | ≥ 40% | ≤ 0.1 µM | O=C(O)/C=C/c1ccc(/C(=C(\c2ccccc2)C2CCC2)c2ccc(-c3ccncc3)cc2)cc1 [Example 66, (E)-3-(4-((E)-2-Cyclobutyl-2-phenyl-1-(4-(pyridin-4-yl)phenyl)vinyl)phenyl)acrylic acid] | ++ (++ = a single % value ≧ 40%)
8 | > 0.1 µM | ≥ 40% | > 0.1 µM | CC1CCN(c2ccc(/C(=C(/c3ccccc3)C3CCC3)c3ccc(/C=C/C(=O)O)cc3)cc2)CC1 [Example 64, (E)-3-(4-((E)-2-Cyclobutyl-1-(4-(4-methylpiperidin-1-yl)phenyl)-2-phenylvinyl)phenyl)acrylic acid] | ++ (++ = a single % value ≧ 40%)
9 | > 0.1 µM | ≥ 40% | > 0.1 µM | CC/C(=C(/c1ccc(/C=C/C(=O)O)cc1)c1cccc(-c2ccn[nH]2)c1)c1ccccc1 [Example 7, (E)-3-(4-((E)-1-(3-(1H-Pyrazol-5-yl)phenyl)-2-phenylbut-1-en-1-yl)phenyl)acrylic acid] | + (+ = a single % value < 40%)
10 | ≤ 0.1 µM | ≥ 40% | ≤ 0.1 µM | Cc1cscc1/C(=C(\c1ccc(/C=C/C(=O)O)cc1)c1ccc(-c2cn[nH]c2)cc1)C1CCC1 [Example 38, (E)-3-(4-((E)-1-(4-(1H-Pyrazol-4-yl)phenyl)-2-cyclobutyl-2-(4-methylthiophen-3-yl)vinyl)phenyl)acrylic acid] | ++ (++ = a single % value ≧ 40%)
11 | ≤ 0.1 µM | ≥ 40% | ≤ 0.1 µM | CC/C(=C(/c1ccc(/C=C/C(=O)O)cc1)c1ccc(-c2cncs2)cc1)c1cccc(OC)c1 [Example 30, (E)-3-(4-((E)-2-(3-Methoxyphenyl)-1-(4-(thiazol-5-yl)phenyl)but-1-en-1-yl)phenyl)acrylic acid] | ++ (++ = a single % value ≧ 40%)
12 | ≤ 0.1 µM | ≥ 40% | ≤ 0.1 µM | CN(C)CCn1cc(-c2ccc(/C(=C(/c3ccccc3)C3CCC3)c3ccc(/C=C/C(=O)O)cc3)cc2)cn1 [Example 70, (E)-3-(4-((E)-2-Cyclobutyl-1-(4-(1-(2-(dimethylamino)ethyl)-1H-pyrazol-4-yl)phenyl)-2-phenylvinyl)phenyl)acrylic acid] | ++ (++ = a single % value ≧ 40%)
13 | ≤ 0.1 µM | ≥ 40% | ≤ 0.1 µM | CC/C(=C(/c1ccc(/C=C/C(=O)O)cc1)c1ccc(-c2cnco2)cc1)c1ccccc1 [Example 18, (E)-3-(4-((E)-1-(4-(Oxazol-5-yl)phenyl)-2-phenylbut-1-en-1-yl)phenyl)acrylic acid] | ++ (++ = a single % value ≧ 40%)
14 | ≤ 0.1 µM | ≥ 40% | ≤ 0.1 µM | O=C(O)/C=C/c1ccc(/C(=C(\c2ccc(F)cc2Cl)C2CCC2)c2ccc(N3CCOCC3)cc2)cc1 [Example 36, (E)-3-(4-((E)-2-(2-Chloro-4-fluorophenyl)-2-cyclobutyl-1-(4-morpholinophenyl)vinyl)phenyl)acrylic acid] | ++ (++ = a single % value ≧ 40%)
15 | > 0.1 µM | < 40% | > 0.1 µM | CC/C(=C(/c1ccc(/C=C/C(=O)O)cc1)c1cccc(-c2nccs2)c1)c1ccccc1 [Example 11, (E)-3-(4-((E)-2-Phenyl-1-(3-(thiazol-2-yl)phenyl)but-1-en-1-yl)phenyl)acrylic acid] | + (+ = a single % value < 40%)
16 | ≤ 0.1 µM | ≥ 40% | ≤ 0.1 µM | O=C(O)/C=C/c1ccc(/C(=C(\c2ccncc2Cl)C2CCC2)c2ccc(-c3cncs3)cc2)cc1 [Example 34, (E)-3-(4-((E)-2-(3-Chloropyridin-4-yl)-2-cyclobutyl-1-(4-(thiazol-5-yl)phenyl)vinyl)phenyl)acrylic acid] | ++ (++ = a single % value ≧ 40%)
17 | ≤ 0.1 µM | ≥ 40% | ≤ 0.1 µM | Fc1ccc(/C(=C(\c2ccc(/C=C/c3nn[nH]n3)cc2)c2ccc(-c3cn[nH]c3)cc2)C2CCC2)c(Cl)c1 [Example 71, 5-((E)-4-((E)-1-(4-(1H-Pyrazol-4-yl)phenyl)-2-(2-chloro-4-fluorophenyl)-2-cyclobutylvinyl)styryl)-2H-tetrazole] | ++ (++ = a single % value ≧ 40%)
18 | ≤ 0.1 µM | ≥ 40% | ≤ 0.1 µM | CC/C(=C(/c1ccc(/C=C/C(=O)O)cc1)c1ccc(-c2cnn(C)c2)cc1)c1ccccc1 [Example 19, (E)-3-(4-((E)-1-(4-(1-Methyl-1H-pyrazol-4-yl)phenyl)-2-phenylbut-1-en-1-yl)phenyl)acrylic acid] | ++ (++ = a single % value ≧ 40%)
